Source: patent publication US8932818B2, “Screening assays for compounds that modulate programmed ribosomal frameshifting” (PTC Therapeutics, Inc., priority 2008, dated 2015)

Tested on: HIV-1 frameshift signal sequence
Assay: dual luciferase assay for viral programmed ribosomal frameshifting
Assay type: cell-based
Description: For example, the ability of a compound to modulate the efficiency of viral programmed ribosomal frameshifting can be validated in a dual luciferase assay comprising: (a) contacting a compound with a host cell expressing a nucleic acid construct comprising in 5′ to 3′ order: (i) a promoter sequence; (ii) the Renilla luciferase (rluc) gene; (iii) the HIV-1 frameshift signal sequence; (iv) the firefly luciferase gene (flue); and (v) a polyadenylation sequence; and (b) detecting the activity of Renilla luciferase versus that of firefly luciferase, wherein a compound that modulates the efficiency of programmed ribosomal frameshifting is validated if (i) the activity of Renilla luciferase in the presence of the compound is not changed relative to the activity of Renilla luciferase detected in the absence of the compound; and (ii) the activity of firefly luciferase detected in the presence of the compound is changed relative to the activity of firefly luciferase detected in the absence of the compound. In other words, the ratio of Renilla luciferase to firefly luciferase is changed in the presence of the compound relative to the absence of the compound.
The ability of Compound 1 to modulate the efficiency of viral programmed ribosomal frameshifting was measured using a dual luciferase assay (as described in Biswas, et al., 2004, J. Virol. 78(4):2082-2087).

## COc1ccc2c(c1)C(=O)N(c1ccc(C(C)C)cc1)C2 [Compound 1, 2-(4-isopropylphenyl)-6-methoxyisoindolin-1-one]
Dual luciferase assay
  modulates the efficiency of viral programmed ribosomal frameshifting: modulates the efficiency of viral programmed ribosomal frameshifting
Relative to 0.5% DMSO, average at compound test concentration approximately 5 μM to approximately 130 μM (FIG. 1)
  inhibition in luciferase activity relative to negative control: approximately 5 fold
